The values below come from PubChem BioAssay (NCI).

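All cell lines were grown in 96-well plates and treated with compound for 48 hours. Here, GI50 denotes the concentration required for 50% inhibition of growth. TGI denotes the concentration required for complete inhibition of growth.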

Some test systems named below: COLO 205 colon; EKVX NSCLC; M14 melanoma; NCI-H460 lung; OVCAR-8 ovarian; SF-268 CNS; SK-MEL-5 melanoma; U251 CNS; HOP-92 NSCLC; NCI-H23 lung.
What all share (assay): NCI-60 cell line screen, 48 h

Turning to `Cc1cn2c(/C=C3/C(=O)Nc4ccccc43)c(-c3ccc(Cl)cc3)nc2s1`, the GI50 in the assay with COLO 205 colon was 10.4 µM; with EKVX NSCLC it was 8.73 µM; with M14 melanoma, 8.39 µM; in the assay with NCI-H460 lung it was 8.14 µM; with OVCAR-8 ovarian, 10.2 µM; with SF-268 CNS it was 7.41 µM. Moreover, the GI50 with SK-MEL-5 melanoma is 9.06 µM; in the assay on U251 CNS, 5.31 µM. Moreover, the TGI with COLO 205 colon is 22.2 µM; in the assay with EKVX NSCLC, 18.8 µM; in the assay on M14 melanoma it was 15.2 µM; in the assay on NCI-H460 lung, 22.1 µM; in the assay on OVCAR-8 ovarian it was 23.6 µM; in the assay on SF-268 CNS, 24.4 µM. The TGI in the assay on SK-MEL-5 melanoma came out at 16 µM; in the assay on U251 CNS it was 11.2 µM.

As to `CN(C)c1ccc2nc3ccc(=O)cc-3sc2c1`, the GI50 with COLO 205 colon is 0.38 µM; with HOP-92 NSCLC, 1.46 µM; with M14 melanoma it was 0.408 µM; in the assay with NCI-H23 lung, 0.82 µM; with NCI-H460 lung it was 1.55 µM; in the assay on OVCAR-8 ovarian it was 0.651 µM. In addition, the GI50 is 5.16 µM with SF-268 CNS, 0.173 µM with SK-MEL-5 melanoma and 0.72 µM with U251 CNS. In addition, the TGI is 3.81 µM with COLO 205 colon; 29.5 µM in the assay with HOP-92 NSCLC; 10.8 µM with M14 melanoma; more than 100 µM in the assay with NCI-H23 lung; 15.7 µM with NCI-H460 lung; more than 100 µM in the assay with OVCAR-8 ovarian. The TGI in the assay with SF-268 CNS is more than 100 µM; in the assay on SK-MEL-5 melanoma it was 0.495 µM; in the assay on U251 CNS it was 32.2 µM.

With `CC(=O)Oc1ccccc1C(=O)N=C1[Se]CCCN1C(=O)c1ccccc1OC(C)=O`, the GI50 in the assay on COLO 205 colon was 3.08 µM; with M14 melanoma, 1.86 µM; with NCI-H23 lung, 2.72 µM; in the assay on NCI-H460 lung, 2 µM; in the assay on SK-MEL-5 melanoma it was 2.01 µM; in the assay on U251 CNS it was 1.64 µM. The TGI in the assay with COLO 205 colon is 10.1 µM; with M14 melanoma, 4.68 µM; with NCI-H23 lung, 7.78 µM; in the assay with NCI-H460 lung, 5.5 µM; with SK-MEL-5 melanoma it was 4.13 µM; in the assay on U251 CNS, 3 µM.

Consider `CN=NN(C)C(=O)NC`, for which the TGI with COLO 205 colon, with HOP-92 NSCLC, with M14 melanoma, with NCI-H23 lung, with NCI-H460 lung and in the assay on OVCAR-8 ovarian was more than 100 µM throughout. Also, the TGI in the assay on SF-268 CNS, in the assay on SK-MEL-5 melanoma and in the assay with U251 CNS was more than 100 µM throughout.

For the compound `Cc1c(C2Nc3ccccc3C2C)[nH]c2ccccc12` (stereo not given), the GI50 is 10.5 µM in the assay with COLO 205 colon; 15.3 µM in the assay on M14 melanoma; 14.5 µM in the assay on NCI-H23 lung; 0.43 µM in the assay with NCI-H460 lung; 9.1 µM in the assay with OVCAR-8 ovarian; 12.8 µM in the assay on SF-268 CNS. Moreover, the GI50 with SK-MEL-5 melanoma was 0.894 µM. The TGI with COLO 205 colon was found to be 22.5 µM; in the assay with M14 melanoma it was 38.7 µM; with NCI-H23 lung, 32.1 µM; with NCI-H460 lung, 18.3 µM; in the assay on OVCAR-8 ovarian it was 29.2 µM; in the assay with SF-268 CNS it was 45.6 µM. This compound yielded a TGI in the assay with SK-MEL-5 melanoma of 17.4 µM.

In the case of `CC(=O)OCC1OC([S-])C(OC(C)=O)C(OC(C)=O)C1OC(C)=O.CC[PH+](CC)CC.CC[PH+](CC)CC.[Au].[Au]` (stereo not given), the GI50 in the assay with COLO 205 colon was 0.198 µM; in the assay on EKVX NSCLC, 0.405 µM; in the assay with HOP-92 NSCLC, 0.28 µM; in the assay on M14 melanoma it was 0.14 µM; with NCI-H23 lung, 0.245 µM; with OVCAR-8 ovarian it was 0.371 µM. Moreover, the GI50 was 0.207 µM in the assay on SF-268 CNS, 0.132 µM with SK-MEL-5 melanoma and 0.149 µM in the assay on U251 CNS. Moreover, the TGI is 0.391 µM in the assay with COLO 205 colon; 0.921 µM in the assay with EKVX NSCLC; 0.584 µM in the assay with HOP-92 NSCLC; 0.322 µM in the assay on M14 melanoma; 1.07 µM with NCI-H23 lung; 1.52 µM in the assay with OVCAR-8 ovarian. The TGI in the assay on SF-268 CNS was determined as 0.669 µM; with SK-MEL-5 melanoma it was 0.346 µM; with U251 CNS it was 0.306 µM.

For the compound `COc1ccccc1NC(=O)C1=C(C)NC(C)=C(C(=O)Nc2ccccc2OC)C1c1ccc([N+](=O)[O-])cc1`, the TGI in the assay on COLO 205 colon, in the assay with EKVX NSCLC, with M14 melanoma, with NCI-H23 lung, in the assay on NCI-H460 lung and in the assay on OVCAR-8 ovarian was more than 100 µM each time. In addition, the TGI in the assay with SF-268 CNS, in the assay with SK-MEL-5 melanoma and in the assay on U251 CNS was more than 100 µM in each case.

With `O=C(/C=C/c1ccccc1)/C=C/c1ccccc1`, the TGI is more than 100 µM with COLO 205 colon; 88.6 µM in the assay with HOP-92 NSCLC; 39.8 µM in the assay with M14 melanoma; 82.4 µM in the assay with NCI-H23 lung; 65.5 µM with NCI-H460 lung; 66.4 µM with SF-268 CNS. The results for the TGI with SK-MEL-5 melanoma and in the assay with U251 CNS were more than 100 µM and 43.5 µM, respectively.

Turning to `CC(=O)Oc1ccc(Nc2c3ccccc3nc3ccccc23)cc1`, the GI50 in the assay with COLO 205 colon was 0.861 µM; in the assay with EKVX NSCLC, 3.05 µM; in the assay with M14 melanoma, 1.46 µM; in the assay with NCI-H23 lung, 1.17 µM; in the assay on NCI-H460 lung, 0.295 µM; in the assay on OVCAR-8 ovarian, 1.07 µM. Further, the GI50 was 1.86 µM in the assay on SF-268 CNS, 0.984 µM in the assay on SK-MEL-5 melanoma and 1.55 µM in the assay on U251 CNS. Further, the TGI came out at 2.33 µM in the assay on COLO 205 colon; 25.3 µM with EKVX NSCLC; 3.7 µM in the assay with M14 melanoma; 2.98 µM with NCI-H23 lung; 1.3 µM in the assay on NCI-H460 lung; 4.14 µM in the assay with OVCAR-8 ovarian. Besides, the figures for the TGI in the assay with SF-268 CNS, in the assay on SK-MEL-5 melanoma and in the assay on U251 CNS were 12.4 µM, 2.15 µM and 8.85 µM, respectively.

Turning to `O=C(Nc1cccc(Cl)c1Cl)c1cccc(NC2=C(Cl)C(=O)N(Cc3ccccc3)C2=O)c1`, the GI50 in the assay on COLO 205 colon was more than 100 µM; with EKVX NSCLC it was 34.2 µM; with M14 melanoma, 35.8 µM; in the assay with NCI-H23 lung, 41.4 µM; with NCI-H460 lung, 22.4 µM; with OVCAR-8 ovarian, 9.47 µM. Moreover, the GI50 in the assay on SF-268 CNS is 27.7 µM; in the assay with SK-MEL-5 melanoma, 20.1 µM; with U251 CNS it was 46.2 µM. In addition, the TGI in the assay on COLO 205 colon was more than 100 µM; in the assay on EKVX NSCLC it was 89.2 µM; in the assay on M14 melanoma it was more than 100 µM; in the assay with NCI-H23 lung, more than 100 µM; in the assay with NCI-H460 lung, 94.7 µM; in the assay with OVCAR-8 ovarian, 42 µM. For the same compound, the TGI in the assay with SF-268 CNS, in the assay with SK-MEL-5 melanoma and with U251 CNS was more than 100 µM each time.
